Laboratory results: the supplement of paper PMC10307832

Experiments:
Assay in all cases: relative viability (nuclei count vs DMSO), 5 days (fraction); higher = more cells survive
BX 795 + Tozasertib = compound: O=C(NCCCNc1nc(Nc2cccc(NC(=O)N3CCCC3)c2)ncc1I)c1cccs1 [BX 795] + Cc1cc(Nc2cc(N3CCN(C)CC3)nc(Sc3ccc(NC(=O)C4CC4)cc3)n2)n[nH]1 [Tozasertib] (partner 0.1 µM)
Outline: (§1)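 Lung cancer cell lines were pin-tool dosed in 1536-well plates on the day after seeding, with either a lone drug or a fixed anchor-drug dose plus five library-drug doses (not always all listed) in √10 steps. Nuclei were counted on 4× images after 5 days. Relative viability is the ratio of treated-well to vehicle-well nuclei counts, with each value a median of duplicate plates.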

BX 795 + Vorinostat = compound: O=C(NCCCNc1nc(Nc2cccc(NC(=O)N3CCCC3)c2)ncc1I)c1cccs1 [BX 795] + O=C(CCCCCCC(=O)Nc1ccccc1)NO [Vorinostat] (partner 1 µM)
Outline: as §1

BX 795 + Navitoclax = compound: O=C(NCCCNc1nc(Nc2cccc(NC(=O)N3CCCC3)c2)ncc1I)c1cccs1 [BX 795] + CC1(C)CCC(c2ccc(Cl)cc2)=C(CN2CCN(c3ccc(C(=O)NS(=O)(=O)c4ccc(N[C@H](CCN5CCOCC5)CSc5ccccc5)c(S(=O)(=O)C(F)(F)F)c4)cc3)CC2)C1 [Navitoclax] (partner 0.5 µM)
Outline: as §1

BX 795 + Decitabine = compound: O=C(NCCCNc1nc(Nc2cccc(NC(=O)N3CCCC3)c2)ncc1I)c1cccs1 [BX 795] + Nc1ncn([C@H]2C[C@H](O)[C@@H](CO)O2)c(=O)n1 [Decitabine] (partner 2 µM)
Outline: as §1

BX 795 + Pemetrexed = compound: O=C(NCCCNc1nc(Nc2cccc(NC(=O)N3CCCC3)c2)ncc1I)c1cccs1 [BX 795] + Nc1nc2[nH]cc(CCc3ccc(C(=O)N[C@@H](CCC(=O)O)C(=O)O)cc3)c2c(=O)[nH]1 [Pemetrexed] (partner 0.2 µM)
Outline: as §1

Cell Line | relative viability (BX 795 + Tozasertib; first compound 0.04 µM) | relative viability (BX 795 + Tozasertib; first compound 0.1265 µM) | relative viability (BX 795 + Tozasertib; first compound 0.4 µM) | relative viability (BX 795 + Tozasertib; first compound 1.265 µM) | relative viability (BX 795 + Vorinostat; first compound 0.04 µM) | relative viability (BX 795 + Vorinostat; first compound 0.1265 µM) | relative viability (BX 795 + Vorinostat; first compound 0.4 µM) | relative viability (BX 795 + Vorinostat; first compound 1.265 µM) | relative viability (BX 795 + Navitoclax; first compound 0.04 µM) | relative viability (BX 795 + Navitoclax; first compound 0.1265 µM) | relative viability (BX 795 + Navitoclax; first compound 0.4 µM) | relative viability (BX 795 + Navitoclax; first compound 1.265 µM) | relative viability (BX 795 + Decitabine; first compound 0.04 µM) | relative viability (BX 795 + Decitabine; first compound 0.1265 µM) | relative viability (BX 795 + Decitabine; first compound 0.4 µM) | relative viability (BX 795 + Decitabine; first compound 1.265 µM) | relative viability (BX 795 + Pemetrexed; first compound 0.04 µM) | relative viability (BX 795 + Pemetrexed; first compound 0.1265 µM) | relative viability (BX 795 + Pemetrexed; first compound 0.4 µM) | relative viability (BX 795 + Pemetrexed; first compound 1.265 µM)
NCI-H2087 | 0.266 | 0.293 | 0.307 | 0.183 | 0.762 | 1.06 | 0.95 | 0.587 | 0.901 | 1 | 1.25 | 0.801 | 0.387 | 0.347 | 0.369 | 0.143 | 0.695 | 0.655 | 0.696 | 0.654
NCI-H1915 | 0.473 | 0.413 | 0.405 | 0.241 | 0.534 | 0.51 | 0.525 | 0.49 | 0.824 | 0.782 | 0.766 | 0.691 | 0.292 | 0.225 | 0.309 | 0.245 | 0.347 | 0.458 | 0.304 | 0.442
NCI-H1993 | 0.582 | 0.553 | 0.527 | 0.55 | 0.833 | 0.731 | 0.577 | 0.524 | 0.868 | 0.857 | 0.846 | 0.614 | 0.65 | 0.602 | 0.719 | 0.652 | 0.624 | 0.616 | 0.623 | 0.585
HCC-44 | 0.934 | 1.05 | 0.581 | 0.351 | 1.08 | 1.12 | 1.18 | 1.07 | 0.872 | 1.05 | 1.02 | 0.708 | 0.952 | 0.983 | 1.07 | 1 | 0.537 | 0.614 | 0.449 | 0.666
NCI-H23 | 0.327 | 0.639 | 0.314 | 0.234 | 0.583 | 0.651 | 0.376 | 0.285 | 0.983 | 0.916 | 0.672 | 0.355 | 0.298 | 0.234 | 0.346 | 0.315 | 0.559 | 0.61 | 0.418 | 0.502
ChaGo-K-1 | 0.175 | 0.226 | 0.205 | 0.212 | 0.809 | 0.771 | 0.725 | 0.668 | 0.817 | 0.919 | 0.933 | 0.982 | 0.535 | 0.544 | 0.538 | 0.398 | 0.243 | 0.258 | 0.254 | 0.258
EKVX | 0.38 | 0.471 | 0.358 | 0.331 | 0.865 | 0.696 | 0.738 | 0.537 | 0.703 | 1.02 | 0.851 | 0.896 | 0.356 | 0.336 | 0.382 | 0.377 | 0.309 | 0.379 | 0.228 | 0.386
HOP-62 | 0.381 | 0.441 | 0.361 | 0.275 | 0.807 | 0.638 | 0.546 | 0.456 | 1.09 | 1.24 | 1.21 | 1.07 | 0.241 | 0.223 | 0.295 | 0.296 | 0.303 | 0.284 | 0.296 | 0.306
NCI-H2126 | 0.85 | 0.883 | 0.831 | 0.758 | 0.805 | 0.799 | 0.913 | 0.73 | 0.795 | 0.826 | 0.965 | 0.787 | 0.626 | 0.553 | 0.747 | 0.593 | 0.713 | 0.692 | 0.457 | 0.666
NCI-H1734 | 0.243 | 0.23 | 0.238 | 0.216 | 0.888 | 0.773 | 0.482 | 0.34 | 0.882 | 0.945 | 0.828 | 0.618 | 0.582 | 0.613 | 0.545 | 0.504 | 0.348 | 0.421 | 0.33 | 0.398
HARA | 0.124 | 0.0907 | 0.0944 | 0.0873 | 0.523 | 0.595 | 0.447 | 0.482 | 1.13 | 1.13 | 1.24 | 1.13 | 0.618 | 0.578 | 0.684 | 0.553 | 0.21 | 0.227 | 0.195 | 0.227
201T | 1.06 | 0.918 | 1.11 | 0.963 | 1.06 | 0.991 | 1.23 | 1.12 | 1.18 | 1.21 | 1.24 | 1.21 | 0.886 | 0.871 | 1 | 0.867 | 0.302 | 0.305 | 0.298 | 0.304
NCI-H2085 | 0.797 | 0.84 | 0.771 | 0.66 | 0.78 | 0.809 | 0.778 | 0.725 | 1.12 | 1.17 | 1.27 | 1.01 | 0.683 | 0.501 | 0.737 | 0.575 | 0.848 | 0.865 | 0.919 | 0.899
LK-2 | 0.164 | 0.185 | 0.16 | 0.175 | 0.398 | 0.37 | 0.286 | 0.239 | 0.873 | 0.876 | 0.787 | 0.608 | 0.447 | 0.266 | 0.294 | 0.271 | 0.277 | 0.237 | 0.269 | 0.24
NCI-H1437 | 0.378 | 0.395 | 0.429 | 0.413 | 0.765 | 0.945 | 1.02 | 0.621 | 1.08 | 1.06 | 1.15 | 0.94 | 0.616 | 0.586 | 0.846 | 0.618 | 0.277 | 0.305 | 0.257 | 0.321
NCI-H460 | 0.497 | 0.44 | 0.0824 | 0.184 | 0.822 | 0.967 | 0.48 | 0.285 | 1.1 | 1.25 | 1.16 | 0.973 | 0.497 | 0.584 | 0.446 | 0.403 | 0.0535 | 0.0622 | 0.0597 | 0.0576
NCI-H3122 | 0.387 | 0.415 | 0.323 | 0.356 | 0.715 | 1.03 | 1.11 | 0.679 | 1.03 | 1 | 1.04 | 1.05 | 0.415 | 0.428 | 0.477 | 0.532 | 0.172 | 0.207 | 0.141 | 0.182
LCLC-97TM1 | 0.356 | 0.24 | 0.305 | 0.232 | 0.774 | 0.725 | 0.768 | 0.468 | 0.398 | 0.45 | 0.529 | 0.432 | 0.268 | 0.264 | 0.367 | 0.227 | 0.152 | 0.184 | 0.177 | 0.184
EPLC-272H | 0.349 | 0.277 | 0.294 | 0.228 | 0.533 | 0.472 | 0.354 | 0.219 | 1.14 | – | 1.27 | 1.12 | 0.356 | 0.472 | 0.374 | 0.305 | 0.272 | 0.294 | 0.123 | 0.21
NCI-H596 | 0.963 | 0.906 | 1.03 | 0.699 | 0.669 | 0.585 | 0.623 | 0.594 | 1.04 | 1.05 | 1.16 | 0.945 | 1.05 | 0.982 | 1.1 | 1.08 | 0.464 | 0.476 | 0.456 | 0.527
LOU-NH91 | 0.699 | 0.609 | 0.525 | 0.568 | 0.846 | 0.955 | 0.842 | 0.903 | 0.686 | 0.735 | 0.594 | 0.686 | 0.818 | 0.791 | 0.803 | 0.798 | 0.321 | 0.38 | 0.294 | 0.377
LC-2-ad | 0.611 | 0.475 | 0.419 | 0.384 | 0.755 | 0.759 | 0.595 | 0.37 | 0.503 | 0.448 | 0.467 | 0.213 | 0.777 | 0.835 | 0.74 | 0.611 | 0.267 | 0.288 | 0.25 | 0.263
